Patent publication US12281119B2, “Imidazo[2,1-f][1,2,4]triazin-4-amine derivatives as TLR7 agonist” (BEIGENE, LTD., priority 2019, dated 2025)

What was measured:
human TLR 8 protein = biological target: T1, human TLR 8 protein (Homo sapiens, UniProt Q9NR97); assay: TLR8 stimulation determined using HEK-Blue Detection; type: cell-based; conditions: HEK-Blue hTLR8 cells, 16 hr, relative to Resiquimod or Motolimod maximum
T1 construct: expressed in transfected cells; host or cells: HEK293 (HEK-Blue hTLR8)
T1 sequence (Q9NR97 27-1041): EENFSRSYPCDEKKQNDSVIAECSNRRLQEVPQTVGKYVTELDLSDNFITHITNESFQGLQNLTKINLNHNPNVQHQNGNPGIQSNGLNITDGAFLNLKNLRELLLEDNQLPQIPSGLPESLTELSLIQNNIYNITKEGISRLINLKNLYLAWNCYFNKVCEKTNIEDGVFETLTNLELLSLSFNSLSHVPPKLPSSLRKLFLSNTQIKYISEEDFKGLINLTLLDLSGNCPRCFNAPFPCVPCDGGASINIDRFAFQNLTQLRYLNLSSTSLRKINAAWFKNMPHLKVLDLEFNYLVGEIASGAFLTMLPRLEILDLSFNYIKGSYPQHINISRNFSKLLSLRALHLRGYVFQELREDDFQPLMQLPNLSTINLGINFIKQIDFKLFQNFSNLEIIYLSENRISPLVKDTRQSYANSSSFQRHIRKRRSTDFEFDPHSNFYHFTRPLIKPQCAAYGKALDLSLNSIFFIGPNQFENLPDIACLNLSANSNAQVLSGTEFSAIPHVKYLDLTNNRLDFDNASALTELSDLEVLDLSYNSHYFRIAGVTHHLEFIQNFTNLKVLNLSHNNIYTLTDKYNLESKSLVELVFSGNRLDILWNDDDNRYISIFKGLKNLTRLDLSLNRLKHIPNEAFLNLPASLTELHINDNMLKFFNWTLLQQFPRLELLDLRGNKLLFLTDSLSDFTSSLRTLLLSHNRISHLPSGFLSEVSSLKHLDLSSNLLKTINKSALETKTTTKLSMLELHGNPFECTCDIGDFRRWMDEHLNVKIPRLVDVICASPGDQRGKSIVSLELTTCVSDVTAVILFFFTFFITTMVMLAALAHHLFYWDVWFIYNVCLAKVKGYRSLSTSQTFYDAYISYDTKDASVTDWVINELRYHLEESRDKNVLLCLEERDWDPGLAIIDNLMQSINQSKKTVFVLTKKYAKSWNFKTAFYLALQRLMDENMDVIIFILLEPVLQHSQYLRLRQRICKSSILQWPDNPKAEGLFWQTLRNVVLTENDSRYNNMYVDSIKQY
Summary of the method: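 HEK-Blue hTLR8 cells with NF-κB/AP-1-driven SEAP reporter, 40000 cells/well, treated with 10-point dilutions (1 nM-10 uM final, 0.1% DMSO) for 16 hr at 37° C. SEAP read as OD 620-655 nm. EC50 derived from percent of maximum activation set by Resiquimod or Motolimod.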

human TLR7 = biological target: T2, human TLR7 (Homo sapiens, UniProt Q9NYK1); assay: TLR7 stimulation determined using HEK-Blue Detection; type: cell-based; parameters: expressed in transfected cells; host or cells: HEK293 (HEK-Blue hTLR7); conditions: HEK-Blue hTLR7 cells, HEK-Blue Detection (A77-A124), 16 hr, relative to Resiquimod maximum
T2 sequence (Q9NYK1 27-1049): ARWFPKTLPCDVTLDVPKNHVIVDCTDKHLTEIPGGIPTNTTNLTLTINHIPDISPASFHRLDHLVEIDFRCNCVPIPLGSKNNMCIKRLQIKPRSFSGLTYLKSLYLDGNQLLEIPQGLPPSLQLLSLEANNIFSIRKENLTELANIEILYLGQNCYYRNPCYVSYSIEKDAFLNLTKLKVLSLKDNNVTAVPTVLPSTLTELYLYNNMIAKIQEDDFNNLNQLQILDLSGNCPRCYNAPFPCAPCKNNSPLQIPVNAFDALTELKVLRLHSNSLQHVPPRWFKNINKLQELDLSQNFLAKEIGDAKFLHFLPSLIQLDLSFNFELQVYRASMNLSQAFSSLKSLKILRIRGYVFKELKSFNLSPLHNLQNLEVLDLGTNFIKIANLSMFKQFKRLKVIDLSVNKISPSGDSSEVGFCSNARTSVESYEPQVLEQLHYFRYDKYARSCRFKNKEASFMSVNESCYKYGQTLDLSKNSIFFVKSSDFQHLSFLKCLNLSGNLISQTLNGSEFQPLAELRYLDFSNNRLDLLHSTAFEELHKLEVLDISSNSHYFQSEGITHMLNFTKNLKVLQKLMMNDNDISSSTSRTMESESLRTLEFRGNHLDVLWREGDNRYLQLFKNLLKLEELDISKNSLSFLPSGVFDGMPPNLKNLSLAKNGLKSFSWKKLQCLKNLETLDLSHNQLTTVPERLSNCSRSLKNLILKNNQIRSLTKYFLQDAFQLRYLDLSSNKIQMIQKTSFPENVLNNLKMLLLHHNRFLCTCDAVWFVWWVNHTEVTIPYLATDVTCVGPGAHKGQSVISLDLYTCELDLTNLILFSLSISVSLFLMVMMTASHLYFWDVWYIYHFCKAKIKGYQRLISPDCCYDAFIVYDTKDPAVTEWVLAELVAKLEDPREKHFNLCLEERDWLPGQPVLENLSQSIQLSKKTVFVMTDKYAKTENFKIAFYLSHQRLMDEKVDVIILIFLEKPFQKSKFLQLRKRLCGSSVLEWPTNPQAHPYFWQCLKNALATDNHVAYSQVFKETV
Summary of the method: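 HEK-Blue hTLR7 cells (HEK293 with NF-κB/AP-1-driven SEAP reporter), 40000 cells/well, treated with 10-point dilutions from 0.04 nM to 10 μM final in 0.1% DMSO for 16 h at 37° C. SEAP read as OD 620-655 nm; EC50 derived from % of maximum activation with resiquimod.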

Question: For `CNCCOc1ccc(Cc2cnc3c(N)nc(OCC4CCOC4)nn23)cn1` (centres unmarked) [Compound A80, 7-((6-(2-(methylamino)ethoxy)pyridin-3-yl)methyl)-2-((tetrahydrofuran-3-yl)methoxy)imidazo[2,1-f][1,2,4]triazin-4-amine], which EC50 (human TLR 8 protein) is on record?
Answer: > 10000 nM

Question: And the EC50 (human TLR7)?
Answer: 446 nM

Question: With `CCCC(CCO)Oc1nc(N)c2ncc(Cc3ccc(OCCNC)cc3F)n2n1` (single isomer, unassigned) [Compound A115, (R or S)-3-((4-amino-7-(2-fluoro-4-(2-(methylamino)ethoxy)benzyl)imidazo[2,1-f][1,2,4]triazin-2-yl)oxy)hexan-1-ol] as the molecule, how does the EC50 (human TLR 8 protein) read?
Answer: 7 nM

Question: What about the EC50 (human TLR7) of the same molecule?
Answer: 0.72 nM

Question: What does the source list for `CCCC(CCO)Oc1nc(N)c2ncc(Cc3ccc(OCCNC)cc3)n2n1` (single isomer, unassigned) [Compound A92, (R or S) 3-((4-amino-7-(4-(2-(methylamino)ethoxy)benzyl)imidazo[2,1-f][1,2,4]triazin-2-yl)oxy)hexan-1-ol]?
Answer: EC50 (human TLR 8 protein): 872 nM; EC50 (human TLR7): 122 nM

Question: For `CCC[C@H](C)Oc1nc(N)c2ncc(Cc3ccc(OCCNC)c(F)c3)n2n1` [Compound A99, (S)-7-(3-fluoro-4-(2-(methylamino)ethoxy)benzyl)-2-(pentan-2-yloxy)imidazo[2,1-f][1,2,4]triazin-4-amine], which EC50 (human TLR 8 protein) is on record?
Answer: 129 nM

Question: And the EC50 (human TLR7)?
Answer: 14.4 nM

Question: What does the source list for `CCCC(CCO)Oc1nc(N)c2ncc(Cc3ccc(OCCNC)cc3F)n2n1` (centres unmarked) [Compound A97, 3-((4-amino-7-(2-fluoro-4-(2-(methylamino)ethoxy)benzyl)imidazo[2,1-f][1,2,4]triazin-2-yl)oxy)hexan-1-ol]?
Answer: EC50 (human TLR 8 protein): 10 nM; EC50 (human TLR7): 1 nM

Question: `CCCC(CCO)Oc1nc(N)c2ncc(Cc3ccc(OCCNC)c(OC)c3)n2n1` (centres unmarked) [Compound A98, 3-((4-amino-7-(3-methoxy-4-(2-(methylamino)ethoxy)benzyl)imidazo[2,1-f][1,2,4]triazin-2-yl)oxy)hexan-1-ol] was tested. Which EC50 (human TLR 8 protein) did it give?
Answer: 163 nM

Question: And the EC50 (human TLR7)?
Answer: 11 nM

Question: Which results are given for `CCCC(CCO)Oc1nc(N)c2ncc(Cc3ccc(CCNC)cc3)n2n1` (centres unmarked) [Compound A95, 3-((4-amino-7-(4-(2-(methylamino)ethyl)benzyl)imidazo[2,1-f][1,2,4]triazin-2-yl)oxy)hexan-1-ol]?
Answer: EC50 (human TLR 8 protein): 19 nM; EC50 (human TLR7): 8 nM

Question: With `CCCC(CCO)Oc1nc(N)c2ncc(Cc3ccc(OCCNC)cc3Cl)n2n1` (single isomer, unassigned) [Compound A108, (R or S)-3-((4-amino-7-(2-chloro-4-(2-(methylamino)ethoxy)benzyl)imidazo[2,1-f][1,2,4]triazin-2-yl)oxy)hexan-1-ol] as the molecule, how does the EC50 (human TLR 8 protein) read?
Answer: 21 nM

Question: And the EC50 (human TLR7)?
Answer: 0.8 nM

Question: How did the EC50 (human TLR 8 protein) turn out when `CCCC(CCO)Oc1nc(N)c2ncc(Cc3cc(OCCNC)ccc3OC)n2n1` (single isomer, unassigned) [Compound A113, (R or S)-3-((4-amino-7-(2-methoxy-5-(2-(methylamino)ethoxy)benzyl)imidazo[2,1-f][1,2,4]triazin-2-yl)oxy)hexan-1-ol] was run?
Answer: 98 nM

Question: What about the EC50 (human TLR7) of the same molecule?
Answer: 24 nM

Question: With `CCCC(CCO)Oc1nc(N)c2ncc(Cc3cc(F)c(OCCNC)cc3F)n2n1` (single isomer, unassigned) [Compound A112, (R or S)-3-((4-amino-7-(2,5-difluoro-4-(2-(methylamino)ethoxy)benzyl)imidazo[2,1-f][1,2,4]triazin-2-yl)oxy)hexan-1-ol] as the molecule, how does the EC50 (human TLR 8 protein) read?
Answer: 9 nM

Question: And the EC50 (human TLR7)?
Answer: 0.93 nM
